Experimental data reported in ChEMBL document CHEMBL5335861, “Novel ACC Inhibitors for Treating Acne” (ACS Med Chem Lett, 2024).
pIC50: −log10 of the molar value.

Biological target: Acetyl-CoA carboxylase 1 (Homo sapiens, UniProt Q13085)
Assay: Inhibition of full length human recombinant ACC1 expressed in baculovirus infected Sf9 cells incubated for 18 hrs in presence of ATP by envision fluorescence reader analysis

pIC50: 8.89
Compound: COc1cc(C(=O)N2CCC3(CC2)CC(=O)c2nc(C(C)(C)C)sc2C3)c2[nH]ccc2c1Cl
